Measurements published in patent publication US9877980B2, “Method and composition for treatment or prevention of type 2 diabetes and hyperlipidemia” (Chun-Ching Shih, priority 2016, dated 2018).
Marks after values point to notes of the source that are not given here.

What was measured:
Type in all cases: in vivo
[1] = system: AMPK; test: Western blotting of phospho-AMPK/total AMPK in skeletal muscle and liver; conditions: HFD mice, 4 weeks, vs HF group
Procedure: (§1) The following experiment was performed and approved by the guidelines of the Institutional Animal Care and Use Committee of Central Taiwan University of Science and Technology. The 4-week old male C57BL/6J mice (total amount n=63) were purchased from the National Laboratory Animal Breeding and Research Center (Taipei, Taiwan). After acclimatization for one week, all of the mice were divided randomly into the control (CON) group and the high-fat diet (HFD) group. For the following 12 weeks, the CON group (n=9) was kept on a low-fat diet (Diet 12450B, Research Diets, Inc., New Brunswick, N.J., USA), while the HFD group (n=54) was exposed to a high-fat diet (Diet 12451, Research Diets, New Brunswick, N.J., USA). The low-fat diet was composed of protein 20%, carbohydrate 70% and fat 10%, whereas the high-fat diet was composed of protein 20%, carbohydrate 35%, and fat 45% (of total energy, % kcal). After HFD exposure for 8 weeks, the HFD group was further randomly subdivided into 6 groups (n=9 per group) to receive different treatments by oral gavage once daily for four weeks and on HFD. […] The HF+B1, HF+B2, and […] are collectively termed BB-treated HFD groups in the following examples. The CON mice were administered vehicle. After dosing for 4 weeks, the mice were given no food at night and sacrificed after 12 h of fasting on the next day. All of the individual tissues were collected and weighed, and portions were instantly frozen using liquid nitrogen and kept at −80° C. for subsequent target gene analysis. Blood samples (0.8 mL) were collected for analysis of blood parameters.
(§2) Protein extractions and immunoblots for the determination of phospho-AMPK (Thr^172) and phospho-Akt (Ser^473) proteins in skeletal muscle and liver tissue of mice (n=9) were carried out. About 0.1 g of liver tissue and skeletal muscle was used for the homogenate samples. Samples were powdered under liquid nitrogen and homogenized for 20 seconds in 500 μL buffer containing 20 mM Tris-HCL1 (pH 7.4 at 4° C.), 2% SDS, 5 mM EDTA, 5 mM EGTA, 1 mM DTT, 100 mM NaF, 2 mM sodium vanadate, 0.5 mM phenylmethylsulfonyl fluoride, 10 μg/mL leupeptin, and […] pepstatin. The protein concentration in supernatant was determined with a BCA protein assay kit (Thermo Scientific, Rockford, Ill., USA). 20 μg of proteins were separated by electrophoresis on a polyacrylamide gel 12% (SDS-PAGE) and transferred to a nitrocellulose membrane. The membranes were blocked with 5% slim milk in Tris-buffered saline (TBS)(Amersham BioSciences, Uppsala, Sweden) containing 0.05% Tween-20 (Bio Rad, CA, USA) and incubated overnight at 4° C. with anti-phospho-AMPK (Abcam Inc., Cambridge, Mass., USA) and anti-phospho-Akt (Cell signaling Technology, Inc., Danvers, Mass., USA) rabbit polyclonal antibodies at 1:200 dilution. Subsequently, the membranes were washed three times with TBS containing 0.05% Tween-20 and incubated with secondary antibody anti-rabbit (1:1000) (Jackson ImmunoResearch Laboratories, Inc., PA, USA) for 1 hour. Immunoreactive bands were detected with ECL reagent kit (GE Healthcare BioSciences, Buckinghamshire, UK). The intensity of blotting was analyzed using Alpha Easy FC software (Alpha Innotech Corporation, Randburg, South Africa). Structural proteins GAPDH (Santa Cruz Biotechnology, CA, USA) in the samples were used as the loading control.

[2] = system: C57BL/6J mice on high-fat diet (HFD); test: Absolute tissue weight, body weight, weight gain and food intake in HFD mice; conditions: 4 weeks
Procedure: as §1
Body weight of each mouse was monitored and measured daily at the same time throughout the experimentation. The difference in body weight between two consecutive days is defined as body weight gain. The food pellets for mice were weighed and put into the food container. Unconsumed pellets of high-fat diet were discarded each day and fresh pellets of high-fat diet were provided to ensure food quality throughout the experimentation. The high-fat food pellets were stored at 4° C.

[3] = system: Akt; test: Western blotting of phospho-Akt/total Akt in skeletal muscle and liver; conditions: HFD mice, 4 weeks, vs HF group
Procedure: as §1, §2

[4] = system: epididymal adipocyte of HFD mice; test: Histology of epididymal white adipose tissue (adipocyte hypertrophy); conditions: 4 weeks, three measurements
Procedure: as §1
Small pieces of epididymal white adipose tissue and liver tissue were fixed with formalin (200 g/kg) neutral buffered solution and embedded in paraffin. Sections of 8 μm […] were cut and stained with hematoxylin and eosin. For microscopic examination, a microscope (Leica, DM2500) was used, and the images were taken using a Leica Digital Camera (DFC-425-C).
Adipocyte hypertrophy, the pathological enlargement of adipocytes, is often found in subjects with type 2 diabetes and hyperlipidemia. To verify the therapeutic effect of the compound of formula I on adipocyte hypertrophy, morphology of the EWAT for the CON group and the BB-treated HFD groups was examined. Micrographs of the EWAT sections for each group were analyzed to determine the mean area of an epididymal adipocyte using the software ImageJ.

[5] = liver, 10 mg/kg/day oral gavage
[6] = liver, 20 mg/kg/day oral gavage
[7] = liver, 40 mg/kg/day oral gavage
[8] = skeletal muscle, 10 mg/kg/day oral gavage
[9] = skeletal muscle, 20 mg/kg/day oral gavage
[10] = skeletal muscle, 40 mg/kg/day oral gavage

OCC1O[C@@H](O[C@@H]2Cc3c(O)cc(O)cc3O[C@@H]2c2ccc(O)c(O)c2)C(O)C(O)[C@@H]1O (single isomer, unassigned; (-)) [compound of formula I, (−)-epicatechin-3-O-β-D-allopyranoside]
expression level of phospho-AMPK/total AMPK [1, 5]: enhanced | expression level of phospho-AMPK/total AMPK [1, 6]: enhanced | expression level of phospho-AMPK/total AMPK [1, 7]: enhanced | expression level of phospho-AMPK/total AMPK [1, 8]: enhanced | expression level of phospho-AMPK/total AMPK [1, 9]: enhanced | expression level of phospho-AMPK/total AMPK [1, 10]: enhanced | Absolute tissue weight BAT ([2]; 10 mg/kg/day oral gavage): 0.168 ± 0.011 g | Absolute tissue weight EWAT ([2]; 10 mg/kg/day oral gavage): 0.906 ± 0.105^d g | Absolute tissue weight Liver ([2]; 10 mg/kg/day oral gavage): 0.899 ± 0.036 g | Absolute tissue weight MWAT ([2]; 10 mg/kg/day oral gavage): 0.293 ± 0.018 g | Absolute tissue weight RWAT ([2]; 10 mg/kg/day oral gavage): 0.280 ± 0.043^d g | Absolute tissue weight Skeletal muscle ([2]; 10 mg/kg/day oral gavage): 0.873 ± 0.060 g | Absolute tissue weight Visceral fat ([2]; 10 mg/kg/day oral gavage): 1.273 ± 0.147^d g | Body weight ([2]; 10 mg/kg/day oral gavage): 27.85 ± 1.04 g | Food intake ([2]; 10 mg/kg/day oral gavage): 2.08 ± 0.05 g/day/mouse | Weight gain ([2]; 10 mg/kg/day oral gavage): 0.40 ± 0.28 g | Absolute tissue weight BAT ([2]; 20 mg/kg/day oral gavage): 0.156 ± 0.017 g | Absolute tissue weight EWAT ([2]; 20 mg/kg/day oral gavage): 0.902 ± 0.084^d g | Absolute tissue weight Liver ([2]; 20 mg/kg/day oral gavage): 0.866 ± 0.036 g | Absolute tissue weight MWAT ([2]; 20 mg/kg/day oral gavage): 0.267 ± 0.021 g | Absolute tissue weight RWAT ([2]; 20 mg/kg/day oral gavage): 0.263 ± 0.034^f g | Absolute tissue weight Skeletal muscle ([2]; 20 mg/kg/day oral gavage): 0.813 ± 0.077 g | Absolute tissue weight Visceral fat ([2]; 20 mg/kg/day oral gavage): 1.199 ± 0.104^e g | Body weight ([2]; 20 mg/kg/day oral gavage): 27.88 ± 1.14 g | Food intake ([2]; 20 mg/kg/day oral gavage): 2.03 ± 0.03 g/day/mouse | Weight gain ([2]; 20 mg/kg/day oral gavage): 0.61 ± 0.43 g | Absolute tissue weight BAT ([2]; 40 mg/kg/day oral gavage): 0.144 ± 0.010 g | Absolute tissue weight EWAT ([2]; 40 mg/kg/day oral gavage): 0.936 ± 0.075^d g | Absolute tissue weight Liver ([2]; 40 mg/kg/day oral gavage): 0.848 ± 0.028 g | Absolute tissue weight MWAT ([2]; 40 mg/kg/day oral gavage): 0.236 ± 0.030 g | Absolute tissue weight RWAT ([2]; 40 mg/kg/day oral gavage): 0.233 ± 0.026^f g | Absolute tissue weight Skeletal muscle ([2]; 40 mg/kg/day oral gavage): 1.156 ± 0.102^d g | Absolute tissue weight Visceral fat ([2]; 40 mg/kg/day oral gavage): 1.198 ± 0.075^e g | Body weight ([2]; 40 mg/kg/day oral gavage): 27.15 ± 0.84 g | Food intake ([2]; 40 mg/kg/day oral gavage): 2.02 ± 0.03 g/day/mouse | Weight gain ([2]; 40 mg/kg/day oral gavage): −0.05 ± 0.11^d g | expression level of phospho-Akt/total Akt [3, 5]: increased | expression level of phospho-Akt/total Akt [3, 6]: increased | expression level of phospho-Akt/total Akt [3, 7]: increased | expression level of phospho-Akt/total Akt [3, 8]: increased | expression level of phospho-Akt/total Akt [3, 9]: increased | expression level of phospho-Akt/total Akt [3, 10]: increased | mean area of an epididymal adipocyte ([4]; 10 mg/kg/day oral gavage): 6882.8±102.2 μm^2 | mean area of an epididymal adipocyte ([4]; 20 mg/kg/day oral gavage): 6475.5±102.6 μm^2 | mean area of an epididymal adipocyte ([4]; 40 mg/kg/day oral gavage): 6192.7±100.7 μm^2
